Assay: cuticle abrasion test (hair washed with shampoo test composition, blended, cuticle recovered and weighed)
Conditions: freeze-dried cuticle weighed back after abrasion; 0.03M compound in base shampoo; 4 g hair washed twice in 0.4 g test composition; lower = less cuticle loss
Procedure: A base shampoo composition was prepared, comprising 12 wt % sodium lauryl ether sulphate (2EO), […] cocoamidopropyl betaine and 86 wt. % water.
To this base solution 0.03M of the following compounds was added:
The compositions were tested in a cuticle abrasion test. Root end hair (as received form the supplier) was pre-cleaned by washing for 1 minute in Composition I followed by copious rinsing in double deionised water. The hair was left to dry naturally over 24 hrs.
For each test, 4 g of hair was washed in 0.4 g of the test composition for 30 seconds, rinsed for 30 seconds, and the washing/rinsing cycle repeated. The hair was left to dry naturally overnight.
The hair was cut into 1 cm lengths, placed in a blender bucket and 200 ml of double de-ionized water was added. The blender was placed on full power for 1 minute. The liquor was decanted off and transferred to a 50 ml centrifuge tube and centrifuged for 10 minutes at 4,300 RPM. The resulting clear liquor was decanted off leaving the cuticle sediment at the bottom of the tube.
The cuticle was transferred from the tube into a beaker with 3×5 ml washes and passed through a series of sieves (425 and 53 microns). The sieves were washed with a further 2×10 ml of water to ensure complete recovery of the cuticle. The sample was made up to 50 ml in a centrifuge tube, centrifuged for 15 minutes and the liquor decanted off. The cuticle was transferred with double deionised water (2×10 ml washes) to a beaker and freeze-dried.
The freeze-dried cuticle was weighed back to determine percentage recovery.

Row | SMILES | % recovery
1 | CCCCCC(C)(C)O [Example 2, 2-methyl-2-heptanol] | 0.54%
2 | CCCC(C)CO (stereo not drawn) [Example 7, 2-methyl-1-pentanol] | 0.64%
3 | CCC(C)(O)CCCC(C)C (stereo not drawn) [B, 3,7-dimethyl-3-octanol, reference compound] | 0.84%
4 | CCCC(C)(O)CC(C)C (stereo not drawn) [Example A, 2,4-dimethyl-4-heptanol, reference compound] | 0.84%
5 | CCCCC(C)(C)O [Example 1, 2-methyl-2-hexanol] | 0.53%
6 | CC(C)CC(C)O (stereo not drawn) [C, 4-methyl-2-pentanol, reference compound] | 0.79%
7 | CCC(C)C(C)O (stereo not drawn) [Example 6, 3-methyl-2-pentanol] | 0.62%
8 | CCCCC(O)C(C)C (stereo not drawn) [Example 3, 2-methyl-3-heptanol] | 0.55%
9 | CCCC(C)(C)O [Example 4, 2-methyl-2-pentanol] | 0.58%
